Here are results for five molecules from ChEMBL document CHEMBL1201862, “PubChem BioAssay data set” (2004).

A word on the IC50: it is the concentration that inhibits the measured activity by half. The CC50 is the concentration giving 50% cytotoxicity. For orientation: Ki means a measure of affinity in units of concentration, obtained from inhibition or displacement.

Values joined by “and” are separate entries in the source; they are usually repeats but may differ in a detail not shown here. Equal entries are not always repeated. Active and inactive are the calls of the source.

Test [1] deals with T1, Insulin-degrading enzyme (Homo sapiens, UniProt P14735).
T1 sequence (P14735 whole entry): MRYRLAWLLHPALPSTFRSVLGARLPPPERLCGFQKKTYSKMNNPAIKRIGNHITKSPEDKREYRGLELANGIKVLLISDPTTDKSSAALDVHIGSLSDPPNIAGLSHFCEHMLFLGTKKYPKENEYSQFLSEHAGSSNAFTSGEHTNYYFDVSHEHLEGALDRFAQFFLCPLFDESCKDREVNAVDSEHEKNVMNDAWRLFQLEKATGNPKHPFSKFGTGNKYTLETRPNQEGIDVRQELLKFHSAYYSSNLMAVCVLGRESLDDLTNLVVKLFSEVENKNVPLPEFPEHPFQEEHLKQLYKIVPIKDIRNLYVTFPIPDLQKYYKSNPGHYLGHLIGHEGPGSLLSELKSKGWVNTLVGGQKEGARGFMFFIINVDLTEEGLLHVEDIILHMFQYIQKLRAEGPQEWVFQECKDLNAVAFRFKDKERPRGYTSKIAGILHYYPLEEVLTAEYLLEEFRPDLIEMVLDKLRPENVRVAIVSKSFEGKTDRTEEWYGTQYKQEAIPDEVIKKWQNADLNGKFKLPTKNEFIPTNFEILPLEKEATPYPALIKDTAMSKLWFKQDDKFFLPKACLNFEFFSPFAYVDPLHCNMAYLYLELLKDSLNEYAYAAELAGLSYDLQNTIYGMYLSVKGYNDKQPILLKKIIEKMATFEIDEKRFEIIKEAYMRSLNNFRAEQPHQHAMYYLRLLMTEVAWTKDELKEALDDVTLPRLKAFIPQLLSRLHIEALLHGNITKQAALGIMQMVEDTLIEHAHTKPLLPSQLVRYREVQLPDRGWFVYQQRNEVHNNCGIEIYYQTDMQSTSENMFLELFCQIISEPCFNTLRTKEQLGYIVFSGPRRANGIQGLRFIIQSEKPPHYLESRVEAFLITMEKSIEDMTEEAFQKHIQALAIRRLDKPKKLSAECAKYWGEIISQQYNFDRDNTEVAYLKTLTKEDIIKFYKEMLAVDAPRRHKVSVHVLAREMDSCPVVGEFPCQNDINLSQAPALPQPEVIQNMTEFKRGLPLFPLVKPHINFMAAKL
Briefly: recombinant IDE activation, cell-free – biochemical, fluorescence polarization, counter-screen for IDE activator project, dose response (AID 588681). A general note: Fluorescence polarisation rises when a labelled molecule tumbles more slowly, as on binding a larger partner.

The target of test [2] is T1, Insulin-degrading enzyme. Briefly: cellular IDE activation of Abeta substrate cleavage – fluorescence polarization, HEK cells, dose response (AID 588439). It is filed as functional, cell-based.
Test [3] has as its system HEK293. Nature of the test: membrane integrity loss in HEK cells – cell-based, fluorescence, cytotoxicity control for IDE activator project, dose response (AID 588440).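 Further: cytotoxicity by LDH release measuring loss of membrane integrity.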 It is filed as functional. Particulars: Homo sapiens.
Test [4] concerns HEK293. Nature of the test: optical interference in Abeta FP readout, dose response, artefact control for IDE activator project, biochemical, fluorescence polarization (AID 588442). It counts as functional, cell-based. Particulars: Homo sapiens.
The nature of test [5]: viability of uninfected HEp-2 cells – cell-based, HTS, cytotoxicity control for RSV inhibitor project, dose response (AID 2410). It is filed as functional. The following applies: human respiratory syncytial virus.
In test [6] the test system is Vero. Nature of the test: cells. It is filed as functional, cell-based. The following applies: Chlorocebus sabaeus.
Test [7] concerns Vero. Nature of the test: cells. It is filed as functional. Particulars: Chlorocebus sabaeus.
A further test deals with SUMO E1/E2 (Homo sapiens, UniProt P63279+Q9UBE0+Q9UBT2). Briefly: SAR analysis of SUMOylation using HTRF in an in-Vitro dose response assay. [Related pubchem assays (depositor defined):AID2006, AID2011, AID2018, AID2069, AID2658]. It counts as functional. A general note: Time-resolved FRET reads energy transfer from a long-lived donor to a nearby acceptor.
SUMO E1/E2, sequence (Q9UBE0 whole entry): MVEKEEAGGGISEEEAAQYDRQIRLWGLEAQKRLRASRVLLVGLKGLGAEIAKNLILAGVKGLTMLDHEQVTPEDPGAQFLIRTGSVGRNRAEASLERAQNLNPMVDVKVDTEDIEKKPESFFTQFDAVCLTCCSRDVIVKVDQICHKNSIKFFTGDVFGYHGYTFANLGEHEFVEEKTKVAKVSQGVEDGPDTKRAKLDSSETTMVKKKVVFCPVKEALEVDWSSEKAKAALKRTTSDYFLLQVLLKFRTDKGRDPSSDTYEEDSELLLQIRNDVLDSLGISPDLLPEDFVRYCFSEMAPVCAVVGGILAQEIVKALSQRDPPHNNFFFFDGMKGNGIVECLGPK
SUMO E1/E2, sequence (Q9UBT2 whole entry): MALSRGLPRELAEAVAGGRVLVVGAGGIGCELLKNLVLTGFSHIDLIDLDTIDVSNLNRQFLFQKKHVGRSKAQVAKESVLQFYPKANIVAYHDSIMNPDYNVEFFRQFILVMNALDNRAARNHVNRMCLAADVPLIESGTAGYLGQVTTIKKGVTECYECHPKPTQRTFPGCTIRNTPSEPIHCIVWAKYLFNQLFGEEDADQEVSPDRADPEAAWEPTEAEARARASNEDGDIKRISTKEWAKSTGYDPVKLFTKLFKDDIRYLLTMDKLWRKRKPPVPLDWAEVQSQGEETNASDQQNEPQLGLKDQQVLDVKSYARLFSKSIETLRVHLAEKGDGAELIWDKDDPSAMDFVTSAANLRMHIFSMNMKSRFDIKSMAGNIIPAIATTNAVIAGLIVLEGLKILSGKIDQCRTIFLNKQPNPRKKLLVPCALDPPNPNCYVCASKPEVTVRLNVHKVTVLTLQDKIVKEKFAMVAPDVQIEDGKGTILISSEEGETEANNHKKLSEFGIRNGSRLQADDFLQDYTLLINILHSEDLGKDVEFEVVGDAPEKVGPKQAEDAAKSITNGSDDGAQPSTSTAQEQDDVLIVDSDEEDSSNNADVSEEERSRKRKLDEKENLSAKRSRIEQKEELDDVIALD
SUMO E1/E2, sequence (P63279 whole entry): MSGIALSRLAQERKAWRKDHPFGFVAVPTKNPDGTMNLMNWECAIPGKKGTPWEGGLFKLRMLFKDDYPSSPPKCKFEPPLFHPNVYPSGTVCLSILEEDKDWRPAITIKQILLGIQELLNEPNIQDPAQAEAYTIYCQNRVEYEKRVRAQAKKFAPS
The target of test [8] is T2, Voltage-gated N-type calcium channel alpha-1B subunit/Amyloid beta A4 precursor protein-binding family A member 1 (Homo sapiens, UniProt Q00975+Q02410). Nature of the test: disruptors of Mint-PDZ/N-type channel peptide interaction – biochemical, HTRF, set 2, SAR follow-up (AID 434980). It is filed as functional.
T2 sequence (Q00975 whole entry): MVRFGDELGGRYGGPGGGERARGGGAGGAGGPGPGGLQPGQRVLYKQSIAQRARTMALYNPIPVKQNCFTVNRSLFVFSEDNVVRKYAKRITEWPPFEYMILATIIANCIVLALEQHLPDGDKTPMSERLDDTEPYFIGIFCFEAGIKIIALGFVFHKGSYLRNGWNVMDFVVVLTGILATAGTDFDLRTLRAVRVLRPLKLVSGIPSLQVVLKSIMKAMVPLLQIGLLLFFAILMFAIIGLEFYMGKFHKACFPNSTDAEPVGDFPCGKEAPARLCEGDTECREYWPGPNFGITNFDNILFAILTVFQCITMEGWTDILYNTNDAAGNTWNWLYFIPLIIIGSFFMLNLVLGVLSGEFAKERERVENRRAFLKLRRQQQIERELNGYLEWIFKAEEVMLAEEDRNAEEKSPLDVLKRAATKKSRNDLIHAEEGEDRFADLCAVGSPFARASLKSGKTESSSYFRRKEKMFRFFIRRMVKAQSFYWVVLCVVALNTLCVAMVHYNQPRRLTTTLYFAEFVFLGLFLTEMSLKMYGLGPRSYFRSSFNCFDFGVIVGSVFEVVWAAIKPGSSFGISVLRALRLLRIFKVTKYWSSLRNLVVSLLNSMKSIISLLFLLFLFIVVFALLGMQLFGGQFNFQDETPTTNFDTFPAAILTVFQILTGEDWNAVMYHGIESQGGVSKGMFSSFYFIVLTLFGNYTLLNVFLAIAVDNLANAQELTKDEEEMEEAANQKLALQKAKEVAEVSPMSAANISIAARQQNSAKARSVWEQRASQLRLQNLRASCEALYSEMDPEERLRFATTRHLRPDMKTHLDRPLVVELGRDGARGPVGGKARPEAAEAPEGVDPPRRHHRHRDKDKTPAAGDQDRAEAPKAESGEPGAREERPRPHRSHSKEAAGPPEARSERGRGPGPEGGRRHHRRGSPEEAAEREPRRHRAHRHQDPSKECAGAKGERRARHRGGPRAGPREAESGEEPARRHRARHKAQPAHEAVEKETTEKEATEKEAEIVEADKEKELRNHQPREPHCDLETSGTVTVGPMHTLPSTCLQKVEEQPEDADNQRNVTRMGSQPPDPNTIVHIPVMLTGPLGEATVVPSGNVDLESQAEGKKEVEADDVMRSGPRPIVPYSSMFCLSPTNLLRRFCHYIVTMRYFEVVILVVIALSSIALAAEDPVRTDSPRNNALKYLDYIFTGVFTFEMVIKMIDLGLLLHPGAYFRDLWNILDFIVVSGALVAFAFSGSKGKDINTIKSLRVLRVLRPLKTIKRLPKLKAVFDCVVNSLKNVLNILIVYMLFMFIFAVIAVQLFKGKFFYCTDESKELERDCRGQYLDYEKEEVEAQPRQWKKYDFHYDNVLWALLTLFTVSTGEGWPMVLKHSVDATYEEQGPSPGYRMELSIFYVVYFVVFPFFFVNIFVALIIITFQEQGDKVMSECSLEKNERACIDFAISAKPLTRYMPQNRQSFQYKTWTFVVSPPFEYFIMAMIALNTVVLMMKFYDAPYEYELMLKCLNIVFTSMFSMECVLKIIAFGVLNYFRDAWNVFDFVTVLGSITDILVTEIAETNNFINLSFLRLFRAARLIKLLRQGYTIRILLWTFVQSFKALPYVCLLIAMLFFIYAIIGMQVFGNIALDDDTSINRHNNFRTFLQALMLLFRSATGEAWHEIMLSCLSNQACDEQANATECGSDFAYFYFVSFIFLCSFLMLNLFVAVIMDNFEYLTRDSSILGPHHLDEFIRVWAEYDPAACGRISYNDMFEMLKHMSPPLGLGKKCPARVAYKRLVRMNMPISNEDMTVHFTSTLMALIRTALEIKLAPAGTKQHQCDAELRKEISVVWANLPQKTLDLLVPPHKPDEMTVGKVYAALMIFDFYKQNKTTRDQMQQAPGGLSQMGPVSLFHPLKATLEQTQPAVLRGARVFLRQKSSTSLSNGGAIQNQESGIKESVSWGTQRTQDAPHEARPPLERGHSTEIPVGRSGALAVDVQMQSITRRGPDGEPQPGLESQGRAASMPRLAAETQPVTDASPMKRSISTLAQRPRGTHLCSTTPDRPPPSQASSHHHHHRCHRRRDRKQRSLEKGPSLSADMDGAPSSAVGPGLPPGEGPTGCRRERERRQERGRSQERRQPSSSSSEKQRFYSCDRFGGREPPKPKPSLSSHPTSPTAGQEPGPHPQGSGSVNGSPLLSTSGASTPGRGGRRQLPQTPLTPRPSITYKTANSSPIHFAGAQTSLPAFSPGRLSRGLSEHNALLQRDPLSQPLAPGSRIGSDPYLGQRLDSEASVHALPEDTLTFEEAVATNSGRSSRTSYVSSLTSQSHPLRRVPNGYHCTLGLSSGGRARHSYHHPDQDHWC
T2 sequence (Q02410 whole entry): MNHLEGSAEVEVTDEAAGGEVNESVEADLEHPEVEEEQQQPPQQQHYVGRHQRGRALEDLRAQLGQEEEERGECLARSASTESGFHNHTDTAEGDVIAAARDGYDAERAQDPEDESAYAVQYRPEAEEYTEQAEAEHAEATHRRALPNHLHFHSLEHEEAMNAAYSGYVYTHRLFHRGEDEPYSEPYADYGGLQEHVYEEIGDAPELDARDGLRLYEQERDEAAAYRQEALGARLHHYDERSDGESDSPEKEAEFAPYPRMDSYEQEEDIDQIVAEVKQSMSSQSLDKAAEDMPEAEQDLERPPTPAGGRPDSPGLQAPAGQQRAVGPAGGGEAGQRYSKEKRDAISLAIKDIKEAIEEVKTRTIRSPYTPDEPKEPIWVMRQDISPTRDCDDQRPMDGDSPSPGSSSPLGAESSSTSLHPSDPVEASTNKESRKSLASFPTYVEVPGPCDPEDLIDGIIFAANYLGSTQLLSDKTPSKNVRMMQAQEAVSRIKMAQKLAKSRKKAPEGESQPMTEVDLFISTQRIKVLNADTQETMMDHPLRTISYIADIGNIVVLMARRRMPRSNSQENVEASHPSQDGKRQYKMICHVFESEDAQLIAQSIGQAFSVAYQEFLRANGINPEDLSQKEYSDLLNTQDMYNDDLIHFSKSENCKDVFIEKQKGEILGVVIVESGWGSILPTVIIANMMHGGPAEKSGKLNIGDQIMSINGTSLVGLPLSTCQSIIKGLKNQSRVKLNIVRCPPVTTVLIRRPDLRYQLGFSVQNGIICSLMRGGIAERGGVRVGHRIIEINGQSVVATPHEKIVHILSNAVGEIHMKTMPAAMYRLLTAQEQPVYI
Test [9] has as its target T2, Voltage-gated N-type calcium channel alpha-1B subunit/Amyloid beta A4 precursor protein-binding family A member 1. Briefly: disruptors of Mint-PDZ/N-type channel peptide interaction – biochemical, HTRF, SAR follow-up (AID 2489). It counts as functional.
Test [10] addresses Potassium voltage-gated channel subfamily KQT member 2 (Rattus norvegicus, UniProt O88943). Briefly: blockers of KCNQ2 channel current – cell-based, automated electrophysiology, set II, rat KCNQ2, dose response (AID 588637). It counts as functional.
In test [11] the target is T3, Carboxy-terminal domain RNA polymerase II polypeptide A small phosphatase 1 (Homo sapiens, UniProt Q9GZU7).
T3 sequence (Q9GZU7 whole entry): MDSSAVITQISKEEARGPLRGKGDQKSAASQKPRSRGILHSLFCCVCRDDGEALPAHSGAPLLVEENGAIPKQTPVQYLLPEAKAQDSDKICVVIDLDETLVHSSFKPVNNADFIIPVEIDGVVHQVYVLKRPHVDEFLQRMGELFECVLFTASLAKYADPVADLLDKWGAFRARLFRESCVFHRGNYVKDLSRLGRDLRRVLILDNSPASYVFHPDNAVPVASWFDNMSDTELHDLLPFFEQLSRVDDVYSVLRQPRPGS
Nature of the test: CTDSP1 inhibitors, concentration-response, biochemical, absorbance readout, ultra-high-throughput screen actives (AID 540297). It is filed as functional.

Test [12] addresses T4, Apoptotic protease-activating factor 1 (Homo sapiens, UniProt O14727).
T4 sequence (O14727 whole entry): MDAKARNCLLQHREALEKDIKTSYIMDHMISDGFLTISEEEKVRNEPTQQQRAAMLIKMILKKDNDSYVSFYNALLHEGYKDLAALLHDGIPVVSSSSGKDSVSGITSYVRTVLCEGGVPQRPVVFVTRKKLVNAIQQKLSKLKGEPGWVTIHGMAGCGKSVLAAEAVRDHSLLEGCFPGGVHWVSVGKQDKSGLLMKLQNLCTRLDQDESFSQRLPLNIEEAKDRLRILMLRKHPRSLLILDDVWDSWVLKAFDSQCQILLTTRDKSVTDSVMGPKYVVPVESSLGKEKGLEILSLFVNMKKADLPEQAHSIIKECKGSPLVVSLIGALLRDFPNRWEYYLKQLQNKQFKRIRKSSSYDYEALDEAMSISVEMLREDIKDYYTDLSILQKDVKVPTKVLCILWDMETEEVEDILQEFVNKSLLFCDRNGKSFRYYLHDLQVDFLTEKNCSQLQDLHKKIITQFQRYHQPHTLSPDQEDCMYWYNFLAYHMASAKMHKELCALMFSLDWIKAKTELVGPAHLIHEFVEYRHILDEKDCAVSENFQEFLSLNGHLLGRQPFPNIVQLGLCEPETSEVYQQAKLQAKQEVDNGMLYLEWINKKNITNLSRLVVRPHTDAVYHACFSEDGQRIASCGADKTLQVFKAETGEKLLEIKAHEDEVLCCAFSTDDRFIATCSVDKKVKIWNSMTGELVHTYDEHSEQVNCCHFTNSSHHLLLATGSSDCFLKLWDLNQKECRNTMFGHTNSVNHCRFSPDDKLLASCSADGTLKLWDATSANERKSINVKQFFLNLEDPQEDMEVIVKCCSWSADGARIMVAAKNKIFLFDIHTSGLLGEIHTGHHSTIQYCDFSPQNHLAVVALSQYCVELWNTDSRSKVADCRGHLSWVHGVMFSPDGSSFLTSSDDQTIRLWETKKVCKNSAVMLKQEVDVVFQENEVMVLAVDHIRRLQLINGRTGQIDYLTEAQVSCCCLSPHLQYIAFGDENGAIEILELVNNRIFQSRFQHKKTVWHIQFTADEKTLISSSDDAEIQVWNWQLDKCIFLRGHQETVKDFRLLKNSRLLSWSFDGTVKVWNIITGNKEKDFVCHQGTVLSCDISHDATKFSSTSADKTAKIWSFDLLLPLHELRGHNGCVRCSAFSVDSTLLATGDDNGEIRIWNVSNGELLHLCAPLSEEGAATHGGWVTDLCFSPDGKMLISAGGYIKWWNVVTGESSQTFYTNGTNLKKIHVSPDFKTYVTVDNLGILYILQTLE
Briefly: SAR analysis of small molecule Activators of Apaf-1 in a Fluorescent assay. The following applies: read-out: EC50_Mean. It counts as functional.

A further test concerns the target Activin receptor type-1 (Homo sapiens, UniProt Q04771). Nature of the test: Navigating the Kinome. Panel member name: ACVR1. It is filed as functional.
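Wherever EC50 Mean is given: caspase-3 cleavage of fluorogenic Rh110 DEVD substrate downstream of apoptosome activation.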

Activin receptor type-1, sequence (Q04771 whole entry): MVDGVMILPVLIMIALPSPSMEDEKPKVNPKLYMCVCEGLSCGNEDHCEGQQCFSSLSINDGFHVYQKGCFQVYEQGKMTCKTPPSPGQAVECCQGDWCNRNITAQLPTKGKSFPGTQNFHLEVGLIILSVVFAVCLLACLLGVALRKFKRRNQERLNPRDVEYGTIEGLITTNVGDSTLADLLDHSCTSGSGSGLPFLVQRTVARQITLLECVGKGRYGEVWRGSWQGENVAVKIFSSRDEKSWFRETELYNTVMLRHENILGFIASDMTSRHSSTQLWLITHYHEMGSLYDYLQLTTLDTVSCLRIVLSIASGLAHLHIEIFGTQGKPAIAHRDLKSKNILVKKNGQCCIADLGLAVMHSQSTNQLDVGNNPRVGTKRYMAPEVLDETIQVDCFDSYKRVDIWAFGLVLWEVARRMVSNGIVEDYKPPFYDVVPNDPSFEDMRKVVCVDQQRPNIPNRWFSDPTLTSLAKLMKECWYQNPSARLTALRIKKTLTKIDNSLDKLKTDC

As to `CCc1nnc(NS(=O)(=O)c2ccc(N/C=C3/C(=O)NC(=O)N(c4ccc(Cl)cc4)C3=O)cc2)s1`, the EC50 on Insulin-degrading enzyme [1], at Insulin-degrading enzyme [2] and in the test on HEK293 [4] was > 54.7 µM (inactive) in each case. The IC50 in the test with HEK293 [3] was > 89.2 µM (inactive).
Turning to `O=C(O)c1ccccc1Nc1ccc([N+](=O)[O-])cc1`, the CC50 in test [5] was 8.65 µM (active); in the test with Vero [7], > 25 µM (active). For the same molecule, the results for the EC50 on Insulin-degrading enzyme [1], on Insulin-degrading enzyme [2] and with HEK293 [4] were 14 µM (inactive), 7.99 µM (active) and 6.88 µM (active), respectively. For the same molecule, the IC50 with Vero [6] was 8.6 µM (active); in the test on HEK293 [3], > 89.1 µM (inactive); in “cells”, 2.4 µM (active).
Regarding `COc1ccc(CCNC(=O)c2cc(-c3ccco3)nc3ccccc23)cc1`, the IC50 at SUMO E1/E2 was 16.5 µM (active); in [8] it was 12.8 µM (active) and > 56.8 µM (inactive); in test [9] it was 17.3 µM (active) and > 56.8 µM (inactive); in [10], 4.08 µM (active); in [11], 4.22 µM (active).
For the molecule `CC(Cc1ccc2c(c1)OCO2)C(=O)O` (centres undefined), in test [12], the EC50 is > 100 µM (inactive).
In the case of `O=C1Cc2c([nH]c3ccc([N+](=O)[O-])cc23)-c2ccccc2N1` [ALSTERPAULLONE], the Ki at Activin receptor type-1 is 0.0631 µM (active).
